Target: Protease (Human immunodeficiency virus 1, UniProt Q9YQ12)
Sequence (Q9YQ12 whole entry): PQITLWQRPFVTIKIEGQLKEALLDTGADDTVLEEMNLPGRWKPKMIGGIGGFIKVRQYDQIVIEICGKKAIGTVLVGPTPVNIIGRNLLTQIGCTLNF

Compound: Nc1ncnc2c1ncn2CCOCP(=O)(O)O [ADEFOVIR]
- EC50: 16 µM

Reference: ChEMBL document CHEMBL5725610, “Phosphonate compounds” (2018)
